Data taken from patent publication US20230271950A1, “ANTIBACTERIAL PICOLINAMIDE COMPOUNDS” (University of Notre Dame Du Lac, priority 2020, published 2023).
Converted amounts (≈) assume the structure as drawn. Read-outs that look alike come from different tables or passages of the source. Each block holds one molecule with its values, some of them ahead of it.

Tests used:
[1] = tested on: C. difficile; experiment: MIC by broth microdilution against C. difficile strains; format: cell-based, Clostridioides difficile; settings: for MIC: Clostridioides difficile, ATCC43255, ATCC 43255, ribotype 087, read-out: MIC C. difficile; for Selectivity: MIC MRSA/MIC C. difficile, Table 3
[2] = tested on: MRSA (NRS70, NRS119); experiment: MIC against MRSA strains; format: cell-based, Staphylococcus aureus; settings: NRS70 strain; for MIC: Staphylococcus aureus, read-out: MIC MRSA
[3] = tested on: E. faecium NCTC7171; experiment: MIC against E. faecium; format: cell-based, Enterococcus faecium; settings: E. faecium NCTC 7171; for MIC: Enterococcus faecium, NCTC7171, Table 10, unit inferred, read-out: Activity (MIC) against E. faecium
[4] = tested on: S. aureus ATCC29213; experiment: MIC against MSSA; format: cell-based, Staphylococcus aureus; settings: MSSA ATCC 29213; for MIC: Staphylococcus aureus, Table 10, unit inferred, read-out: Activity (MIC) against S. aureus

SMILES: O=C(Nc1nc2ccccc2o1)c1ccnc(-c2ccc(Cl)c(Cl)c2)c1 [Compound 21, N-(benzo[d]oxazol-2-yl)-2-(3,4-dichlorophenyl)isonicotinamide]
MIC ([1]; Table 2 (SAR^1)): 1 µg/mL (≈ 2.6 µM)
MIC ([2]; Table 2 (SAR^1)): 1 µg/mL (≈ 2.6 µM)
MIC [3]: 16 µg/mL (≈ 41.6 µM)
MIC [4]: 16 µg/mL (≈ 41.6 µM)

SMILES: O=C(Nc1ncco1)c1ccnc(-c2cccc(C(F)(F)F)c2)c1 [Compound 45, N-(Oxazol-2-yl)-2-(3-(trifluoromethyl)phenyl)isonicotinamide]
MIC ([1]; Table 3 (SAR^2 and SAR^3)): 0.25 µg/mL (≈ 0.75 µM)
Selectivity [1]: 1
MIC ([2]; Table 3 (SAR^2 and SAR^3)): 0.25 µg/mL (≈ 0.75 µM)
MIC [3]: 1 µg/mL (≈ 3 µM)
MIC [4]: 0.25 µg/mL (≈ 0.75 µM)

SMILES: O=C(Nc1ncco1)c1ccnc(-c2ccc(F)cc2)c1 [Compound 36, 2-(4-Fluorophenyl)-N-(oxazol-2-yl)isonicotinamide]
MIC ([1]; Table 3 (SAR^2 and SAR^3)): 2 µg/mL (≈ 7.06 µM)
Selectivity [1]: 2
MIC ([2]; Table 3 (SAR^2 and SAR^3)): 4 µg/mL (≈ 14.1 µM)
MIC [3]: 8 µg/mL (≈ 28.2 µM)
MIC [4]: 4 µg/mL (≈ 14.1 µM)

SMILES: O=C(Nc1ncco1)c1ccnc(-c2ccc(F)c(F)c2)c1 [Compound 35, 2-(3,4-Difluorophenyl)-N-(oxazol-2-yl)isonicotinamide]
MIC ([1]; Table 3 (SAR^2 and SAR^3)): 1 µg/mL (≈ 3.32 µM)
Selectivity [1]: 2
MIC ([2]; Table 3 (SAR^2 and SAR^3)): 2 µg/mL (≈ 6.64 µM)
MIC [3]: 1 µg/mL (≈ 3.32 µM)
MIC [4]: 4 µg/mL (≈ 13.3 µM)

SMILES: CN(C)C(=O)c1cnc(NC(=O)c2ccnc(-c3ccc(Cl)c(Cl)c3)c2)o1 [Compound 28, (2-(3,4-Dichlorophenyl)isonicotinamido)-N,N-dimethyloxazole-5-carboxamide]
MIC C. difficile ([1]; ATCC 43255, ribotype 087, Table 2 (SAR^1)): 0.5 µg/mL (≈ 1.23 µM)
MIC MRSA ([2]; Table 2 (SAR^1)): 4 µg/mL (≈ 9.87 µM)
Activity (MIC) against E. faecium ([3]; Table 10, unit not given): 8
Activity (MIC) against S. aureus ([4]; Table 10, unit not given): 2

Further molecules by falling MIC [3], results first:

MIC ([1]; Table 3 (SAR^2 and SAR^3)): 0.25 µg/mL (≈ 0.75 µM)
MIC ([2]; Table 3 (SAR^2 and SAR^3)): 1 µg/mL (≈ 3 µM)
MIC [3]: 1 µg/mL (≈ 3 µM)
MIC [4]: 0.25 µg/mL (≈ 0.75 µM)
SMILES: O=C(Nc1ncco1)c1ccnc(-c2ccc(C(F)(F)F)cc2)c1 [Compound 44, N-(Oxazol-2-yl)-2-(4-(trifluoromethyl)phenyl)isonicotinamide]
Selectivity [1]: 4

MIC ([1]; Table 3 (SAR^2 and SAR^3)): 0.25 µg/mL (≈ 0.787 µM)
MIC ([2]; Table 3 (SAR^2 and SAR^3)): 0.25 µg/mL (≈ 0.787 µM)
MIC [3]: 1 µg/mL (≈ 3.15 µM)
MIC [4]: 0.5 µg/mL (≈ 1.57 µM)
SMILES: O=C(Nc1ncco1)c1ccnc(-c2ccc(F)c(Cl)c2)c1 [Compound 40, 2-(3-Chloro-4-fluorophenyl)-N-(oxazol-2-yl)isonicotinamide]
Selectivity [1]: 1

MIC ([1]; Table 3 (SAR^2 and SAR^3)): 0.25 µg/mL (≈ 0.716 µM)
MIC ([2]; Table 3 (SAR^2 and SAR^3)): 0.0625 µg/mL (≈ 0.179 µM)
MIC [3]: 1 µg/mL (≈ 2.86 µM)
MIC [4]: 0.25 µg/mL (≈ 0.716 µM)
SMILES: O=C(Nc1ncco1)c1ccnc(-c2cccc(OC(F)(F)F)c2)c1 [Compound 47, N-(Oxazol-2-yl)-2-(3-(trifluoromethoxy)phenyl)isonicotinamide]
Selectivity [1]: 0.25

MIC ([1]; Table 3 (SAR^2 and SAR^3)): 0.5 µg/mL (≈ 1.45 µM)
MIC ([2]; Table 3 (SAR^2 and SAR^3)): 0.25 µg/mL (≈ 0.726 µM)
MIC [3]: 1 µg/mL (≈ 2.91 µM)
MIC [4]: 0.5 µg/mL (≈ 1.45 µM)
SMILES: O=C(Nc1ncco1)c1ccnc(-c2ccc(Br)cc2)c1 [Compound 48, 2-(4-Bromophenyl)-N-(oxazol-2-yl)isonicotinamide]
Selectivity [1]: 0.5

MIC ([1]; Table 3 (SAR^2 and SAR^3)): 0.125 µg/mL (≈ 0.393 µM)
MIC ([2]; Table 3 (SAR^2 and SAR^3)): 0.0625 µg/mL (≈ 0.197 µM)
MIC [3]: 0.5 µg/mL (≈ 1.57 µM)
MIC [4]: 0.25 µg/mL (≈ 0.787 µM)
SMILES: O=C(Nc1ncco1)c1ccnc(-c2ccc(Cl)c(F)c2)c1 [Compound 39, 2-(4-Chloro-3-fluorophenyl)-N-(oxazol-2-yl)isonicotinamide]
Selectivity [1]: 0.5

MIC ([1]; Table 3 (SAR^2 and SAR^3)): 0.12 µg/mL (≈ 0.378 µM)
MIC ([2]; Table 3 (SAR^2 and SAR^3)): 0.0625 µg/mL (≈ 0.197 µM)
MIC [3]: 0.5 µg/mL (≈ 1.57 µM)
MIC [4]: 0.25 µg/mL (≈ 0.787 µM)
SMILES: O=C(Nc1ncco1)c1ccnc(-c2cc(F)cc(Cl)c2)c1 [Compound 43, 2-(3-Chloro-5-fluorophenyl)-N-(oxazol-2-yl)isonicotinamide]
Selectivity [1]: 0.5

MIC ([1]; Table 2 (SAR^1)): 0.25 µg/mL (≈ 0.718 µM)
MIC ([2]; Table 2 (SAR^1)): 0.06 µg/mL (≈ 0.172 µM)
MIC [3]: 0.25 µg/mL (≈ 0.718 µM)
MIC [4]: 0.06 µg/mL (≈ 0.172 µM)
SMILES: Cc1coc(NC(=O)c2ccnc(-c3ccc(Cl)c(Cl)c3)c2)n1 [Compound 14, 2-(3,4-Dichlorophenyl)-N-(4-methyloxazol-2-yl)isonicotinamide]
